# In PubChem BioAssay (NCI):
#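 A five-concentration, 48-hour dose response in 96-well plates underlies each endpoint, interpolated linearly between surrounding concentrations. GI50 is the concentration that inhibits growth by half. TGI denotes the concentration required for complete inhibition of growth.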
# Tests used:
# Test in all cases: DTP human tumour cell line panel, 48 h
# U251 CNS = tested on: U251 CNS
# RPMI-8226 leukemia = tested on: RPMI-8226 leukemia
# OVCAR-4 ovarian = tested on: OVCAR-4 ovarian
# OVCAR-3 ovarian = tested on: OVCAR-3 ovarian
# HCC-2998 colon = tested on: HCC-2998 colon
# SF-268 CNS = tested on: SF-268 CNS
# SF-539 CNS = tested on: SF-539 CNS
# IGROV1 ovarian = tested on: IGROV1 ovarian
# NCI-H23 lung = tested on: NCI-H23 lung
# KM12 colon = tested on: KM12 colon
# COLO 205 colon = tested on: COLO 205 colon
# SK-MEL-2 melanoma = tested on: SK-MEL-2 melanoma
# A498 renal = tested on: A498 renal
# TK-10 renal = tested on: TK-10 renal
# CCRF-CEM leukemia = tested on: CCRF-CEM leukemia
# SR leukemia = tested on: SR leukemia
# HOP-92 NSCLC = tested on: HOP-92 NSCLC
# K-562 leukemia = tested on: K-562 leukemia
# SK-MEL-5 melanoma = tested on: SK-MEL-5 melanoma
# HT29 colon = tested on: HT29 colon
# UACC-257 melanoma = tested on: UACC-257 melanoma
# SNB-19 CNS = tested on: SNB-19 CNS
# PC-3 prostate = tested on: PC-3 prostate
# SN12C renal = tested on: SN12C renal
# ACHN renal = tested on: ACHN renal
# NCI/ADR-RES ovarian = tested on: NCI/ADR-RES ovarian
# SNB-75 CNS = tested on: SNB-75 CNS
# RXF 393 renal = tested on: RXF 393 renal
# MDA-MB-435 = tested on: MDA-MB-435
# HOP-62 NSCLC = tested on: HOP-62 NSCLC
# MDA-MB-231 breast = tested on: MDA-MB-231 breast
# 786-0 renal = tested on: 786-0 renal
# OVCAR-5 ovarian = tested on: OVCAR-5 ovarian
# CAKI-1 renal = tested on: CAKI-1 renal
# OVCAR-8 ovarian = tested on: OVCAR-8 ovarian
# MCF7 breast = tested on: MCF7 breast
# MOLT-4 leukemia = tested on: MOLT-4 leukemia
# NCI-H226 lung = tested on: NCI-H226 lung
# SK-MEL-28 melanoma = tested on: SK-MEL-28 melanoma
# HCT-116 colon = tested on: HCT-116 colon
# UACC-62 melanoma = tested on: UACC-62 melanoma
# NCI-H460 lung = tested on: NCI-H460 lung
# M14 melanoma = tested on: M14 melanoma
# T-47D breast = tested on: T-47D breast
# SK-OV-3 ovarian = tested on: SK-OV-3 ovarian
# EKVX NSCLC = tested on: EKVX NSCLC
# HS 578T breast = tested on: HS 578T breast
# A549 NSCLC = tested on: A549 NSCLC
# DU-145 prostate = tested on: DU-145 prostate
# HCT-15 colon = tested on: HCT-15 colon
# HL-60(TB) leukemia = tested on: HL-60(TB) leukemia
# UO-31 renal = tested on: UO-31 renal
# NCI-H522 lung = tested on: NCI-H522 lung
# SF-295 CNS = tested on: SF-295 CNS
# SW-620 colon = tested on: SW-620 colon
# BT-549 breast = tested on: BT-549 breast
# LOX IMVI melanoma = tested on: LOX IMVI melanoma
# MALME-3M melanoma = tested on: MALME-3M melanoma
structure (smiles),measurement,setting,value
CCc1c2c(nc3ccc(OC(=O)OCc4ccc(B5OC(C)(C)C(C)(C)O5)cc4)cc13)-c1cc3c(c(=O)n1C2)COC(=O)[C@]3(O)CC,GI50,U251 CNS,< 10 nM
same,TGI,U251 CNS,> 34.3 µM
same,GI50,RPMI-8226 leukemia,224 nM
same,GI50,OVCAR-4 ovarian,210 nM
same,TGI,OVCAR-4 ovarian,> 30.8 µM
same,GI50,OVCAR-3 ovarian,71.6 nM
same,TGI,OVCAR-3 ovarian,1460 nM
same,GI50,HCC-2998 colon,66.1 nM
same,TGI,HCC-2998 colon,3.86 µM
same,GI50,SF-268 CNS,< 10 nM
same,TGI,SF-268 CNS,1690 nM
same,GI50,SF-539 CNS,< 10 nM
same,TGI,SF-539 CNS,28.6 nM
same,GI50,IGROV1 ovarian,100 nM
same,TGI,IGROV1 ovarian,3.48 µM
same,GI50,NCI-H23 lung,< 10.7 nM
same,TGI,NCI-H23 lung,437 nM
same,GI50,KM12 colon,73 nM
same,TGI,KM12 colon,16.1 µM
same,GI50,COLO 205 colon,80.4 nM
same,TGI,COLO 205 colon,24.5 µM
same,GI50,SK-MEL-2 melanoma,326 nM
same,TGI,SK-MEL-2 melanoma,8.57 µM
same,GI50,A498 renal,11 nM
same,TGI,A498 renal,72.5 nM
same,GI50,TK-10 renal,880 nM
same,TGI,TK-10 renal,> 100 µM
same,GI50,CCRF-CEM leukemia,< 10 nM
same,TGI,CCRF-CEM leukemia,> 100 µM
same,GI50,SR leukemia,< 10 nM
same,TGI,SR leukemia,> 100 µM
same,GI50,HOP-92 NSCLC,26.9 nM
same,TGI,HOP-92 NSCLC,14.4 µM
same,GI50,K-562 leukemia,36.8 nM
same,TGI,K-562 leukemia,> 100 µM
same,GI50,SK-MEL-5 melanoma,21.7 nM
same,TGI,SK-MEL-5 melanoma,118 nM
same,GI50,HT29 colon,43.6 nM
same,TGI,HT29 colon,> 100 µM
same,GI50,UACC-257 melanoma,116 nM
same,TGI,UACC-257 melanoma,3.22 µM
same,GI50,SNB-19 CNS,< 10 nM
same,TGI,SNB-19 CNS,> 100 µM
same,GI50,PC-3 prostate,51.4 nM
same,TGI,PC-3 prostate,> 100 µM
same,GI50,SN12C renal,< 10 nM
same,TGI,SN12C renal,> 54.7 µM
same,GI50,ACHN renal,< 10 nM
same,TGI,ACHN renal,432 nM
same,GI50,NCI/ADR-RES ovarian,27.3 nM
same,TGI,NCI/ADR-RES ovarian,> 100 µM
same,GI50,SNB-75 CNS,< 11.7 nM
same,TGI,SNB-75 CNS,184 nM
same,GI50,RXF 393 renal,13.6 nM
same,TGI,RXF 393 renal,134 nM
same,GI50,MDA-MB-435,52.3 nM
same,TGI,MDA-MB-435,1530 nM
same,GI50,HOP-62 NSCLC,< 10 nM
same,TGI,HOP-62 NSCLC,3.27 µM
same,GI50,MDA-MB-231 breast,892 nM
same,TGI,MDA-MB-231 breast,43.7 µM
same,GI50,786-0 renal,< 10 nM
same,TGI,786-0 renal,289 nM
same,GI50,OVCAR-5 ovarian,114 nM
same,TGI,OVCAR-5 ovarian,6.23 µM
same,GI50,CAKI-1 renal,< 10 nM
same,TGI,CAKI-1 renal,315 nM
same,GI50,OVCAR-8 ovarian,< 11.1 nM
same,TGI,OVCAR-8 ovarian,> 71.4 µM
same,GI50,MCF7 breast,< 10 nM
same,TGI,MCF7 breast,> 100 µM
same,GI50,MOLT-4 leukemia,< 10 nM
same,TGI,MOLT-4 leukemia,> 100 µM
same,GI50,NCI-H226 lung,11 nM
same,TGI,NCI-H226 lung,157 nM
same,GI50,SK-MEL-28 melanoma,262 nM
same,TGI,SK-MEL-28 melanoma,7.32 µM
same,GI50,HCT-116 colon,< 11.1 nM
same,TGI,HCT-116 colon,> 100 µM
same,GI50,UACC-62 melanoma,< 10 nM
same,TGI,UACC-62 melanoma,104 nM
same,GI50,NCI-H460 lung,< 10 nM
same,TGI,NCI-H460 lung,182 nM
same,GI50,M14 melanoma,< 10 nM
same,TGI,M14 melanoma,920 nM
same,GI50,T-47D breast,< 10 nM
same,TGI,T-47D breast,> 100 µM
same,GI50,SK-OV-3 ovarian,15.1 nM
same,TGI,SK-OV-3 ovarian,> 100 µM
same,GI50,EKVX NSCLC,345 nM
same,TGI,EKVX NSCLC,> 55.2 µM
same,GI50,HS 578T breast,547 nM
same,TGI,HS 578T breast,19.8 µM
same,GI50,A549 NSCLC,55.6 nM
same,TGI,A549 NSCLC,5.45 µM
same,GI50,DU-145 prostate,< 10 nM
same,TGI,DU-145 prostate,> 53.3 µM
same,GI50,HCT-15 colon,127 nM
same,TGI,HCT-15 colon,> 100 µM
same,GI50,HL-60(TB) leukemia,12.1 nM
same,TGI,HL-60(TB) leukemia,22.3 µM
same,GI50,UO-31 renal,18.9 nM
same,TGI,UO-31 renal,339 nM
same,GI50,NCI-H522 lung,19.6 nM
same,TGI,NCI-H522 lung,14.2 µM
same,GI50,SF-295 CNS,< 10 nM
same,TGI,SF-295 CNS,1480 nM
same,GI50,SW-620 colon,< 12.7 nM
same,GI50,BT-549 breast,< 29.1 nM
same,TGI,BT-549 breast,1510 nM
same,GI50,LOX IMVI melanoma,< 10 nM
same,TGI,LOX IMVI melanoma,196 nM
same,GI50,MALME-3M melanoma,27.9 nM
same,TGI,MALME-3M melanoma,637 nM
